Measurements taken from PubChem BioAssay (NCI).
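Step 1: Grow cells in 96-well plates. Step 2: Expose to compound for 48 hours at 5 concentrations. Step 3: Interpolate endpoints linearly; if unreached, use highest concentration. TGI is the concentration that stops growth completely.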

These compounds were tested on NCI-H460 lung (assay: NCI anticancer screen, dose series, 48 h).
With Cc1cc2c(s1)C(N)CC2=O (configuration not stated) the TGI was > 100 µM. With Cc1cc2c(O)c(c1)COCc1cc(C)cc(c1O)COCc1cc(C)cc(c1O)COC2 the TGI was > 100 µM. In the case of OC(c1ccoc1)c1cc2ccccc2s1 (configuration not stated), the TGI is reported as > 10 µM.

Each compound was assayed on RXF 393 renal (assay: NCI anticancer screen, dose series, 48 h).
In the case of O=C(CSc1nnc(SCC(=O)NN=C2CCCCC2)s1)NN=C1CCCCC1, the TGI is reported as > 100 µM. With Cc1cc2c(s1)C(N)CC2=O (configuration not stated) the TGI was > 100 µM. For Cc1cc2c(O)c(c1)COCc1cc(C)cc(c1O)COCc1cc(C)cc(c1O)COC2, the TGI was > 100 µM. For OC(c1ccoc1)c1cc2ccccc2s1 (configuration not stated), the TGI was > 10 µM.

These compounds were tested on SNB-19 CNS (assay: NCI anticancer screen, dose series, 48 h).
O=C(CSc1nnc(SCC(=O)NN=C2CCCCC2)s1)NN=C1CCCCC1 was tested, and the TGI was > 100 µM. Oc1ccc(O)c(Cc2ccccc2)c1 was tested, and the TGI was > 100 µM. Cc1cc2c(s1)C(N)CC2=O (configuration not stated) was tested, and the TGI was > 100 µM. With Cc1cc2c(O)c(c1)COCc1cc(C)cc(c1O)COCc1cc(C)cc(c1O)COC2 the TGI was > 100 µM. OC(c1ccoc1)c1cc2ccccc2s1 (configuration not stated) was tested, and the TGI was > 10 µM.

Each compound was assayed on SK-MEL-5 melanoma (assay: NCI anticancer screen, dose series, 48 h).
With O=C(CSc1nnc(SCC(=O)NN=C2CCCCC2)s1)NN=C1CCCCC1 the TGI was > 100 µM. Oc1ccc(O)c(Cc2ccccc2)c1 showed a TGI of 37.9 µM. In the case of Cc1cc2c(s1)C(N)CC2=O (configuration not stated), the TGI is reported as > 100 µM. In the case of OC(c1ccoc1)c1cc2ccccc2s1 (configuration not stated), the TGI is reported as > 10 µM.

The compounds below were run on UO-31 renal (assay: NCI anticancer screen, dose series, 48 h).
For O=C(CSc1nnc(SCC(=O)NN=C2CCCCC2)s1)NN=C1CCCCC1, the TGI was > 100 µM. With Oc1ccc(O)c(Cc2ccccc2)c1 the TGI was 28.4 µM. With Cc1cc2c(s1)C(N)CC2=O (configuration not stated) the TGI was > 100 µM. Cc1cc2c(O)c(c1)COCc1cc(C)cc(c1O)COCc1cc(C)cc(c1O)COC2 was tested, and the TGI was > 100 µM. With OC(c1ccoc1)c1cc2ccccc2s1 (configuration not stated) the TGI was > 10 µM.

These compounds were tested on A549 NSCLC (assay: NCI anticancer screen, dose series, 48 h).
In the case of O=C(CSc1nnc(SCC(=O)NN=C2CCCCC2)s1)NN=C1CCCCC1, the TGI is reported as > 100 µM. In the case of Oc1ccc(O)c(Cc2ccccc2)c1, the TGI is reported as > 100 µM. For Cc1cc2c(s1)C(N)CC2=O (configuration not stated), the TGI was > 100 µM. In the case of Cc1cc2c(O)c(c1)COCc1cc(C)cc(c1O)COCc1cc(C)cc(c1O)COC2, the TGI is reported as > 100 µM. With OC(c1ccoc1)c1cc2ccccc2s1 (configuration not stated) the TGI was > 10 µM.

Each compound was assayed on SK-MEL-2 melanoma (assay: NCI anticancer screen, dose series, 48 h).
For Oc1ccc(O)c(Cc2ccccc2)c1, the TGI was 37.3 µM. With Cc1cc2c(s1)C(N)CC2=O (configuration not stated) the TGI was > 100 µM. Cc1cc2c(O)c(c1)COCc1cc(C)cc(c1O)COCc1cc(C)cc(c1O)COC2 was tested, and the TGI was > 100 µM. In the case of OC(c1ccoc1)c1cc2ccccc2s1 (configuration not stated), the TGI is reported as > 10 µM.

These compounds were tested on CCRF-CEM leukemia (assay: NCI anticancer screen, dose series, 48 h).
O=C(CSc1nnc(SCC(=O)NN=C2CCCCC2)s1)NN=C1CCCCC1 was tested, and the TGI was > 100 µM. Oc1ccc(O)c(Cc2ccccc2)c1 was tested, and the TGI was > 100 µM. For Cc1cc2c(s1)C(N)CC2=O (configuration not stated), the TGI was > 100 µM. In the case of Cc1cc2c(O)c(c1)COCc1cc(C)cc(c1O)COCc1cc(C)cc(c1O)COC2, the TGI is reported as > 100 µM. For OC(c1ccoc1)c1cc2ccccc2s1 (configuration not stated), the TGI was > 10 µM.

The compounds below were run on COLO 205 colon (assay: NCI anticancer screen, dose series, 48 h).
For O=C(CSc1nnc(SCC(=O)NN=C2CCCCC2)s1)NN=C1CCCCC1, the TGI was > 100 µM. Compound Oc1ccc(O)c(Cc2ccccc2)c1 has a TGI of 32.6 µM. Cc1cc2c(s1)C(N)CC2=O (configuration not stated) was tested, and the TGI was > 100 µM. Cc1cc2c(O)c(c1)COCc1cc(C)cc(c1O)COCc1cc(C)cc(c1O)COC2 was tested, and the TGI was > 100 µM. For OC(c1ccoc1)c1cc2ccccc2s1 (configuration not stated), the TGI was > 10 µM.

What follows are compounds tested on NCI-H23 lung (assay: NCI anticancer screen, dose series, 48 h).
In the case of O=C(CSc1nnc(SCC(=O)NN=C2CCCCC2)s1)NN=C1CCCCC1, the TGI is reported as > 100 µM. For Oc1ccc(O)c(Cc2ccccc2)c1, the TGI was > 100 µM. Cc1cc2c(O)c(c1)COCc1cc(C)cc(c1O)COCc1cc(C)cc(c1O)COC2 was tested, and the TGI was > 100 µM. With OC(c1ccoc1)c1cc2ccccc2s1 (configuration not stated) the TGI was > 10 µM.

These compounds were tested on SF-295 CNS (assay: NCI anticancer screen, dose series, 48 h).
For O=C(CSc1nnc(SCC(=O)NN=C2CCCCC2)s1)NN=C1CCCCC1, the TGI was > 100 µM. Oc1ccc(O)c(Cc2ccccc2)c1 was tested, and the TGI was > 100 µM. Cc1cc2c(O)c(c1)COCc1cc(C)cc(c1O)COCc1cc(C)cc(c1O)COC2 was tested, and the TGI was > 100 µM. For OC(c1ccoc1)c1cc2ccccc2s1 (configuration not stated), the TGI was > 10 µM.

These compounds were tested on DU-145 prostate (assay: NCI anticancer screen, dose series, 48 h).
O=C(CSc1nnc(SCC(=O)NN=C2CCCCC2)s1)NN=C1CCCCC1 was tested, and the TGI was > 100 µM. Oc1ccc(O)c(Cc2ccccc2)c1 was tested, and the TGI was 22.8 µM. For Cc1cc2c(s1)C(N)CC2=O (configuration not stated), the TGI was > 100 µM. For Cc1cc2c(O)c(c1)COCc1cc(C)cc(c1O)COCc1cc(C)cc(c1O)COC2, the TGI was > 100 µM. With OC(c1ccoc1)c1cc2ccccc2s1 (configuration not stated) the TGI was > 10 µM.

The compounds below were run on NCI-H522 lung (assay: NCI anticancer screen, dose series, 48 h).
With O=C(CSc1nnc(SCC(=O)NN=C2CCCCC2)s1)NN=C1CCCCC1 the TGI was > 100 µM. In the case of Cc1cc2c(O)c(c1)COCc1cc(C)cc(c1O)COCc1cc(C)cc(c1O)COC2, the TGI is reported as > 100 µM. OC(c1ccoc1)c1cc2ccccc2s1 (configuration not stated) was tested, and the TGI was > 10 µM.

What follows are compounds tested on MOLT-4 leukemia (assay: NCI anticancer screen, dose series, 48 h).
In the case of O=C(CSc1nnc(SCC(=O)NN=C2CCCCC2)s1)NN=C1CCCCC1, the TGI is reported as > 100 µM. With Oc1ccc(O)c(Cc2ccccc2)c1 the TGI was 22.8 µM. For Cc1cc2c(s1)C(N)CC2=O (configuration not stated), the TGI was > 100 µM. In the case of Cc1cc2c(O)c(c1)COCc1cc(C)cc(c1O)COCc1cc(C)cc(c1O)COC2, the TGI is reported as > 100 µM. For OC(c1ccoc1)c1cc2ccccc2s1 (configuration not stated), the TGI was > 10 µM.

The compounds below were run on A498 renal (assay: NCI anticancer screen, dose series, 48 h).
For O=C(CSc1nnc(SCC(=O)NN=C2CCCCC2)s1)NN=C1CCCCC1, the TGI was > 100 µM. Oc1ccc(O)c(Cc2ccccc2)c1 was tested, and the TGI was > 100 µM. Cc1cc2c(s1)C(N)CC2=O (configuration not stated) was tested, and the TGI was > 100 µM. In the case of Cc1cc2c(O)c(c1)COCc1cc(C)cc(c1O)COCc1cc(C)cc(c1O)COC2, the TGI is reported as > 100 µM.

Each compound was assayed on HT29 colon (assay: NCI anticancer screen, dose series, 48 h).
In the case of O=C(CSc1nnc(SCC(=O)NN=C2CCCCC2)s1)NN=C1CCCCC1, the TGI is reported as > 100 µM. For Oc1ccc(O)c(Cc2ccccc2)c1, the TGI was > 100 µM.
